Biological target: PAR4 (Homo sapiens (Human), UniProt Q96RI0)
Assay: FLIPR assay in PAR4-expressing HEK293 cells (PAR4 antagonist activity, calcium mobilization)
Type: cell-based
Settings: FLIPR assay as described in Example A
Procedure, shortened: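 Calcium-flux antagonist readout: compounds preincubated 30 min at room temperature with PAR4-transfected HEK293 cells in HBSS with 10 mM HEPES (0.67% DMSO final), then agonist peptide added. Agonist activity checked on compound addition; cells carry endogenous PAR1.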

Sequence of PAR4 (Q96RI0 18-385): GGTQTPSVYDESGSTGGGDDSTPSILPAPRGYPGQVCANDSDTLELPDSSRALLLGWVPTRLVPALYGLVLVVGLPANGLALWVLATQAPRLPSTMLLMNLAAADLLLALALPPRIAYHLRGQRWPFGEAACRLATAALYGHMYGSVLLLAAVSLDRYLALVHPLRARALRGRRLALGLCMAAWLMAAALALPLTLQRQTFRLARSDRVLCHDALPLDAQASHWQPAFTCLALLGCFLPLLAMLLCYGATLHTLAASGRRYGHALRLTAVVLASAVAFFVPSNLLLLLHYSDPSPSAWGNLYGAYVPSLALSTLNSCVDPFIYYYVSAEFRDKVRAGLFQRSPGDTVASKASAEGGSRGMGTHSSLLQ

## C[C@H](F)c1nn2cc(-c3cc4c(Cl)cc(Cl)cc4o3)nc2s1 [Example 213B, (S)-6-(4,6-Dichlorobenzofuran-2-yl)-2-(1-fluoroethyl)imidazo[2,1-b][1,3,4]thiadiazole]
  IC50: 10.3 nM

## COc1nn2cc(-c3cc4c(OCc5cccc(OCc6ccccc6)c5)cc(O)cc4o3)nc2s1 [Example 410, 4-((3-(Benzyloxy)benzyl)oxy)-2-(2-methoxyimidazo[2,1-b][1,3,4]thiadiazol-6-yl)benzofuran-6-ol]
  IC50: 7.79 nM

## COc1nn2cc(-c3nc4cccc(F)c4o3)nc2s1 [Example 144]
  IC50: 91.3 nM

## CSc1nn2cc(-c3nc4ccc(OCC5CC5)cc4o3)nc2s1 [Example 174]
  IC50: 167 nM

## COc1cc(OCc2cccc(OCc3cc(Br)ccc3OC)c2)c2cc(-c3cn4nc(OC)sc4n3)oc2c1 [Example 367]
  IC50: 4.09 nM

## CSc1nn2cc(-c3cc4c(O)cccc4o3)nc2s1 [Example 214, 2-(2-(Methylthio)imidazo[2,1-b][1,3,4]thiadiazol-6-yl)benzofuran-4-ol]
  IC50: 322 nM

## CC(F)c1nn2cc(-c3cc4ccc(F)cc4o3)nc2s1 (centres unmarked) [Example 245]
  IC50: 72.3 nM

## COc1cc(OCc2ccccc2)c2nc(-c3cn4nc(OC)sc4n3)oc2c1 [Example 121, 4-(Benzyloxy)-6-methoxy-2-(2-methoxyimidazo[2,1-b][1,3,4]thiadiazol-6-yl)benzo[d]oxazole]
  IC50: 13 nM

## COc1cc(OC)c2cc(-c3cn4nc(SC)sc4n3)oc2c1 [Example 229]
  IC50: 1.22 nM

## COc1nn2cc(-c3cc4c(O)c(Cc5ccccc5)c(OC)cc4o3)nc2s1 [Example 224, 5-Benzyl-6-methoxy-2-(2-methoxyimidazo[2,1-b][1,3,4]thiadiazol-6-yl)benzofuran-4-ol]
  IC50: 97.1 nM

## COc1cc2oc(-c3cn4nc(C(C)(F)F)sc4n3)cc2cc1Cl [Example 239]
  IC50: 7.24 nM

## CSc1nn2cc(-c3nc4c(OCc5ccc(C(F)(F)F)cc5)cccc4o3)nc2s1 [Example 155]
  IC50: 301 nM

## COc1nn2cc(-c3nc4c(OC(F)(F)F)cccc4s3)nc2s1 [Example 195]
  IC50: 2420 nM

## COc1cccc2sc(-c3cn4nc(SC)sc4n3)nc12 [Example 6, 4-Methoxy-2-(2-(methylthio)imidazo[2,1-b][1,3,4]thiadiazol-6-yl)benzo[d]thiazole]
  IC50: 618 nM

## c1ccc2oc(-c3cn4nc(C5CC5)sc4n3)cc2c1 [Example 63]
  IC50: 201 nM

## COc1cc(OCc2cccc(OCc3ccccc3-c3ccccc3)c2)c2cc(-c3cn4nc(OC)sc4n3)oc2c1 [Example 317]
  IC50: 8.36 nM

## COc1cc(OCc2cccc(OCc3ccc(Cl)c(Cl)c3)c2)c2cc(-c3cn4nc(OC)sc4n3)oc2c1 [Example 365]
  IC50: 3.27 nM

## COc1nn2cc(-c3cc4c(C(F)(F)F)cc(C)nc4o3)nc2s1 [Example 305]
  IC50: 13.6 nM

## COc1nn2cc(-c3cc4ccc(Cl)cc4o3)nc2s1 [Example 94]
  IC50: 3.58 nM

## CCc1nn2cc(-c3nc4ccc(OCc5ccccc5Cl)cc4o3)nc2s1 [Example 81]
  IC50: 507 nM

## CCc1nn2cc(-c3nc4cc(Cl)ccc4o3)nc2s1 [Example 45]
  IC50: 135 nM

## CCOc1ccc2nc(-c3cn4nc(SC)sc4n3)oc2c1 [Example 160]
  IC50: 40 nM

## CCOC(=O)COc1cccc2cc(-c3cn4nc(CC)sc4n3)oc12 [Example 62]
  IC50: 587 nM

## CC(F)(F)c1nn2cc(-c3nc4ccccc4o3)nc2s1 [Example 178]
  IC50: 2340 nM

## CC(F)c1nn2cc(-c3cc4ccc(OCc5ccccc5)cc4o3)nc2s1 (centres unmarked) [Example 246]
  IC50: 318 nM

## COc1cc(OCc2cccc(OCc3ccccc3)c2)c2cc(-c3cn4nc(Br)sc4n3)oc2c1 [Example 344]
  IC50: 1.12 nM

## CCCOc1ccc2nc(-c3cn4nc(CC)sc4n3)oc2c1 [Example 51]
  IC50: 394 nM

## COc1ccc2oc(-c3cn4nc(SC)sc4n3)nc2c1 [Example 141]
  IC50: 41 nM

## CSc1nn2cc(-c3nc4c(O)cccc4o3)nc2s1 [Example 147]
  IC50: 78.3 nM

## COc1cc(OC)c2cc(-c3cn4nc(Br)sc4n3)oc2c1 [Example 294]
  IC50: 19.5 nM

## COc1ccc2cc(-c3cn4nc(SC)sc4n3)oc2c1 [Example 20]
  IC50: 3.53 nM

## COc1cc(OCc2cccc(OCc3c(Cl)cccc3Cl)c2)c2cc(-c3cn4nc(OC)sc4n3)oc2c1 [Example 368]
  IC50: 4.69 nM

## COc1cc(OCc2cccc(OCc3ccc(C(C)C)cc3)c2)c2cc(-c3cn4nc(OC)sc4n3)oc2c1 [Example 313]
  IC50: 2.11 nM

## CCc1nn2cc(-c3cc4cc(OC)ccc4o3)nc2s1 [Example 61]
  IC50: 1650 nM

## CSc1nn2cc(-c3nc4ccc(OCCN5CCCC5)cc4o3)nc2s1 [Example 114, 2-(2-(Methylthio)imidazo[2,1-b][1,3,4]thiadiazol-6-yl)-6-(2-(pyrrolidin-1-yl)ethoxy)benzo[d]oxazole]
  IC50: 206 nM

## CSc1nn2cc(-c3cc4ccc(C)c(C)c4o3)nc2s1 [Example 107]
  IC50: 339 nM

## COCCOc1cccc2oc(-c3cn4nc(OC)sc4n3)cc12 [Example 256]
  IC50: 48.4 nM

## COc1nn2cc(-c3cc4c(OCc5cccc(OCc6ccccc6)c5)cc(F)cc4o3)nc2s1 [Example 427]
  IC50: 1.91 nM

## COc1nn2cc(-c3nc4cc(C)ccc4o3)nc2s1 [Example 127]
  IC50: 27.9 nM

## C#Cc1cc(OCc2cccc(OCc3ccccc3)c2)c2cc(-c3cn4nc(OC)sc4n3)oc2c1 [Example 418]
  IC50: 9.37 nM

## Clc1nccc2oc(-c3cn4nc(Br)sc4n3)cc12 [Example 222, 2-(2-Bromoimidazo[2,1-b][1,3,4]thiadiazol-6-yl)-4-chlorofuro[3,2-c]pyridine]
  IC50: 464 nM

## COc1ccc(OC)c2oc(-c3cn4nc(SC)sc4n3)cc12 [Example 105]
  IC50: 11.4 nM

## CSc1nn2cc(-c3nc4c(OC(F)(F)F)cccc4s3)nc2s1 [Example 181, 2-(2-(Methylthio)imidazo[2,1-b][1,3,4]thiadiazol-6-yl)-4-(trifluoromethoxy)benzo[d]thiazole]
  IC50: 419 nM

## COc1cc(OCc2cccc(OCc3ccccc3)c2)c2oc(-c3cn4nc(OC)sc4n3)cc2c1 [Example 409, 6-(7-((3-(Benzyloxy)benzyl)oxy)-5-methoxybenzofuran-2-yl)-2-methoxyimidazo[2,1-b][1,3,4]thiadiazole]
  IC50: 3710 nM

## Fc1cccc2oc(-c3cn4nc(Br)sc4n3)cc12 [Example 276]
  IC50: 120 nM

## COc1cc(O)c2cc(-c3cn4nc(OC)sc4n3)oc2c1 [Example 204, 6-Methoxy-2-(2-methoxyimidazo[2,1-b][1,3,4]thiadiazol-6-yl)benzofuran-4-ol]
  IC50: 170 nM

## CSc1nn2cc(-c3cc4c(F)cccc4o3)nc2s1 [Example 262]
  IC50: 4.28 nM

## COc1ccc(Br)c2cc(-c3cn4nc(Br)sc4n3)oc12 [Example 285]
  IC50: 317 nM

## COc1nn2cc(-c3cc4ccc(O)cc4o3)nc2s1 [Example 108]
  IC50: 461 nM

## Cc1nn2cc(-c3cc4ccccc4o3)nc2s1 [Example 41]
  IC50: 18.6 nM

## COc1cc(OCc2cccc(OCc3c(C)cc(C)cc3C)c2)c2cc(-c3cn4nc(OC)sc4n3)oc2c1 [Example 377]
  IC50: 6.91 nM

## COc1nn2cc(-c3nc4ccc(F)cc4s3)nc2s1 [Example 184, 6-Fluoro-2-(2-methoxyimidazo[2,1-b][1,3,4]thiadiazol-6-yl)benzo[d]thiazole]
  IC50: 5.5 nM

## COc1cc(OCc2cccc(OCc3cc(C)cc(C)c3)c2)c2cc(-c3cn4nc(OC)sc4n3)oc2c1 [Example 382]
  IC50: 1.67 nM

## COc1nn2cc(-c3cc4c(OCc5ccccc5)cc(OC)c(Br)c4o3)nc2s1 [Example 226, 6-(4-(Benzyloxy)-7-bromo-6-methoxybenzofuran-2-yl)-2-methoxyimidazo[2,1-b][1,3,4]thiadiazole]
  IC50: 591 nM

## COc1cc(OCc2cccc(OCc3cc(F)cc(F)c3)c2)c2cc(-c3cn4nc(OC)sc4n3)oc2c1 [Example 311]
  IC50: 8.82 nM

## CSc1nn2cc(-c3cc4c(Cl)cc(Cl)cc4o3)nc2s1 [Example 287]
  IC50: 8.19 nM

## CSc1nn2cc(-c3nc4c(C)cc(Cl)cc4s3)nc2s1 [Example 192]
  IC50: 990 nM

## CSc1nn2cc(-c3nc4cc(OC(F)(F)F)ccc4o3)nc2s1 [Example 139]
  IC50: 80.4 nM

## COc1nn2cc(-c3cc4cccc(C(C)C)c4o3)nc2s1 [Example 101]
  IC50: 10.7 nM

## COc1nn2cc(-c3nc4cc(C(C)(C)C)ccc4o3)nc2s1 [Example 134]
  IC50: 321 nM

## CSc1nn2cc(-c3cc4cc(Cl)c(C)cc4o3)nc2s1 [Example 269]
  IC50: 74.5 nM

## CCOC(=O)CCCOc1cccc2cc(-c3cn4nc(CC)sc4n3)oc12 [Example 60]
  IC50: 623 nM

## COc1ccc2cc(-c3cn4nc(C(C)F)sc4n3)oc2c1 (centres unmarked) [Example 293]
  IC50: 4.83 nM

## COc1cc(OCc2cccc(OCc3cc(F)cc(OCc4ccccc4)c3)c2)c2cc(-c3cn4nc(OC)sc4n3)oc2c1 [Example 395]
  IC50: 38.3 nM

## CC(F)c1nn2cc(-c3cc4ccccc4o3)nc2s1 (centres unmarked) [Example 247]
  IC50: 47.9 nM

## COc1cc(OC[C@H]2CCCN2C(=O)c2ccc(F)cc2)c2cc(-c3cn4nc(OC)sc4n3)oc2c1 [Example 341]
  IC50: 22 nM

## CSc1nn2cc(-c3nc4c(OC[C@H]5CCCN5C(=O)[C@H](NC(=O)OC(C)(C)C)c5ccccc5)cccc4o3)nc2s1 [Example 333, tert-Butyl ((R)-2-((R)-2-(((2-(2-(methylthio)imidazo[2,1-b][1,3,4]thiadiazol-6-yl)benzo[d]oxazol-4-yl)oxy)methyl)pyrrolidin-1-yl)-2-oxo-1-phenylethyl)carbamate]
  IC50: 566 nM

## COc1nn2cc(-c3cc4c(Br)ccc(OC)c4o3)nc2s1 [Example 289]
  IC50: 29.6 nM

## CSc1nn2cc(-c3cc4c(OCc5cccc(OCc6ccccc6)c5)cc(OC(F)F)cc4o3)nc2s1 [Example 424]
  IC50: 21.4 nM

## CSc1nn2cc(-c3nc4c(OCc5cccc(C#N)c5)cccc4o3)nc2s1 [Example 156]
  IC50: 1020 nM

## CC(F)(F)c1nn2cc(-c3cc4ccccc4o3)nc2s1 [Example 207, 6-(Benzofuran-2-yl)-2-(1,1-difluoroethyl)imidazo[2,1-b][1,3,4]thiadiazole]
  IC50: 127 nM
